{"source": "paper PMC2751816", "about": "“Functional, Non-Clonal IgM^a-Restricted B Cell Receptor Interactions with the HIV-1 Envelope gp41 Membrane Proximal External Region” (PLoS ONE, 2009)", "key": {"[1]": {"test_system": "naïve splenic BALB/c B cells", "experiment": "Flow cytometry: APC-labeled tetramer staining of BALB/c splenic B cells", "assay_type": "cell-based, mouse (BALB/c)", "procedure": "N-biotinylated, linker/spacer-containing peptides used to make tetramers are detailed in Table S4 and Fig. 7A. Peptides were synthesized and purified using reverse-phase HPLC (Primm Biotechnology). To produce tetramerized forms of each peptides, 200 µM peptide and 6 µM APC-labeled streptavadin (SA) were combined at equal volumes, and mixtures were incubated at 4°C for 4 h. Unbound peptide was removed from peptide-APC complexes by centrifugal filtration using an Amicon Centriprep YM30 column (Millipore Corporation). Purified tetramer preparations were determined using the Micro BSA protein assay kit (Pierce Biotechnology).\nFACS staining of single cell suspensions (≥2×10^6) was conducted using pre-mixed combinations of fluorochrome-labeled Abs and APC-conjugated B cell tetramers at empirically-determined optimal concentrations. All Abs were from BD unless otherwise stated. Primary antibodies used were: PerCP anti-B220, FITC anti-IgD, FITC, PE or PE-Cy7 anti-IgM, PE anti-CD5, FITC anti-CD11b, PE-Cy7 anti-CD19, FITC anti-CD21, PE-Cy7 anti-CD23 (eBiosciences), and PE-Cy7 anti-CD93 (eBiosciences). Other reagents included biotinylated Abs against dump channel markers: Thy1 (Abcam), F4/80 (Abcam), CD11c, Gr-1, TER-119, and NK-1.1, secondary staining SA-Texas Red conjugate; v-amine live/dead violet dye (Molecular Probes), and Fc block (anti-CD16/32).\nStaining was conducted at 4°C in several sequential steps in FACS staining buffer (1X PBS with 2% FCS, 0.1% NaN3), washing twice between steps. Cells were first incubated with v-amine live/dead dye for 15 min, then stained with APC-labeled tetramers for 30 min (and in some experiments, cold tetramer was incubated at 10 fold molar excess for 1 h, prior to staining with APC-labeled tetramers). Cells were then stained with Fc block, followed by incubation with combinations of primary Abs, and secondary staining with SA-Texas Red, each for 30 min. Data (≥2.5×10^5 events/sample) were acquired using an LSRII flow cytometer and Cell Quest software (BD Immunocytometry systems). FACS Analysis was performed using FlowJo software (Tree Star). For analysis, cells were gated in the following order: single cells were gated based on fsc height vs. fsc area+ssc height vs. ssc profiles, lymphocytes were gated on fsc and ssc profile, residual dead cells were excluded by negative gating with v-amine live/dead dye, and irrelevant non-B cells were excluded by negative gating with dump markers."}, "BALB/c splenic B cells": {"test_system": "BALB/c splenic B cells", "experiment": "Alanine-substituted gp41 MPER mutant tetramers: binding to BALB/c splenic B cells (flow cytometry)", "assay_type": "cell-based, mouse (BALB/c)", "conditions": "APC mutant tetramers 100 ng/10^6 cells, MFI; average of two experiments; Fig. 7B middle", "excerpt": "Figure 7 Mapping of gp41 MPER residues required for high frequency interactions with IgM^a. A) List of peptides (annotated numerically according to position of substitution) used to make mutant tetramers with sequential alanine substitutions (in red) along the gp41 MPER region containing the nominal 2F5 epitope. B) Comparison of gp41 MPER residues required for binding bnAb 2F5 with those required for allotypic interactions with IgM. Shown is relative binding of mutant tetramers with either 2F5 (upper panel), naïve BALB/c total splenic B cells (middle panel), and 9G8 (lower panel). Tetramers with corresponding substituted positions in the 2F5 epitope are indicated on the x-axis, with those in blue and red representing mutated residues with >3 and >10 fold binding reductions, respectively. For measuring mutant tetramer binding to 2F5, unlabeled versions of tetramers were used in SPR analysis, as described in Materials and Methods. […]\nN-biotinylated, linker/spacer-containing peptides used to make tetramers are detailed in Table S4 and Fig. 7A. […] Purified tetramer preparations were determined using the Micro BSA protein assay kit (Pierce Biotechnology).\nFACS staining of single cell suspensions (≥2×10^6) was conducted using pre-mixed combinations of fluorochrome-labeled Abs and APC-conjugated B cell tetramers at empirically-determined optimal concentrations. […]"}}, "note": "Entries after “also recorded” stand apart in the source; their conditions may differ.", "data": [{"sequence": "QQEKNEQELLELDKWASLWN [gp41 MPER tetramer, (residues 659–678 of the HIV-1 envelope)]", "values": [{"measurement": "MFI binding pattern (in words)", "setting": "[1]; BALB/c B cell subsets, Fig. 1A, 2A, Table S1", "result": "the majority of MPER-reactive B cells within BALB/c subsets shifted as “low avidity” shoulders, with an additional, small fraction binding as a “higher-avidity” MFI tail"}, {"measurement": "gp41 MPER reactivity among B cell subsets (in words)", "setting": "[1]; BALB/c splenic and peritoneal subsets, MFI and frequency, Fig. 2, Tables S1, S2", "result": "gp41 MPER reactivity was strongest in marginal zone (MZ) and peritoneal B1 B cell subsets of BALB/c mice; also recorded: exhibited lower levels of gp41 MPER binding"}, {"measurement": "fraction of all B cells labeled at saturating tetramer", "setting": "[1]; BALB/c splenocytes, 10 µg/10^6 splenocytes, Fig. 1B", "result": "~25", "unit": "%"}, {"measurement": "tetramer amount giving saturating binding", "setting": "[1]; BALB/c splenocytes, Fig. 1B", "result": 10, "unit": "µg/10^6 splenocytes"}, {"measurement": "tetramer amount with highest gp41 MPER/scrambled gp41 MPER binding ratio", "setting": "[1]; BALB/c splenocytes, sub-saturating, Fig. 1B", "result": 100, "unit": "ng/10^6 splenocytes"}, {"measurement": "frequency of binding to BALB/c B cells", "setting": "[1]; high-frequency binding, 100 ng tetramer/10^6 cells", "result": "≥ 5", "unit": "%"}, {"measurement": "gp41 MPER binding over wide tetramer concentration range (in words)", "setting": "[1]; serial dilutions, MFI and fraction of labeled B cells, Fig. 1B", "result": "Elevated gp41 MPER binding to BALB/c cells, relative to C57BL/6 B cells, was observed at all concentrations of tetramers carrying MPER peptide; also recorded: substantially elevated relative to the scrambled peptide controls"}, {"measurement": "percentage of tetramer-reactive B cells", "setting": "[1]; total splenic B cells (CD19^+), naïve BALB/c, APC tetramer 100 ng/10^6 splenocytes, above background without tetramer, Fig. 1A representative histogram", "result": "~7", "unit": "%"}, {"measurement": "gp41 MPER residues required for binding (in words)", "setting": "BALB/c splenic B cells", "result": "mapped to 660Q and a 677 W, both located outside the core 2F5 epitope"}]}]}
